Laboratory results from ChEMBL document CHEMBL3046521, “Synthesis and antitumor activity of (4-hydroxyphenyl)[5-substituted alkyl/aryl)-2-thioxo-1,3,4-thiadiazol-3-yl]methanone and [(3,4-disubstituted)-1,3-thiazol-2ylidene]-4-hydroxybenzohydrazide” (2011).

Columns and labels:
Format in all cases: functional
SR = assay: Cytotoxicity against Homo sapiens (human) SR cells after 48 hr by sulforhodamine B assay
HOP-62 = assay: Cytotoxicity against Homo sapiens (human) HOP62 cells after 48 hr by sulforhodamine B assay; details: HOP-62, 48 h
NCI-H226 = assay: Cytotoxicity against Homo sapiens (human) NCI-H226 cells after 48 hr by sulforhodamine B assay; details: NCI-H226, 48 h
HCT-116 = assay: Cytotoxicity against Homo sapiens (human) HCT116 cells after 48 hr by sulforhodamine B assay; details: HCT-116, 48 h
SK-MEL-5 = assay: Cytotoxicity against Homo sapiens (human) SK-MEL-5 cells after 48 hr by sulforhodamine B assay; details: SK-MEL-5, 48 h
EKVX = assay: Cytotoxicity against Homo sapiens (human) EKVX cells after 48 hr by sulforhodamine B assay
M14 = assay: Cytotoxicity against Homo sapiens (human) M14 cells after 48 hr by sulforhodamine B assay; details: M14, 48 h
COLO 205 = assay: Cytotoxicity against Homo sapiens (human) COLO205 cells after 48 hr by sulforhodamine B assay; details: COLO 205, 48 h
OVCAR-3 = assay: Cytotoxicity against Homo sapiens (human) OVCAR3 cells after 48 hr by sulforhodamine B assay; details: OVCAR-3, 48 h
SN12C = assay: Cytotoxicity against Homo sapiens (human) SN12C cells after 48 hr by sulforhodamine B assay
MDA-MB-231 = assay: Cytotoxicity against Homo sapiens (human) MDA-MB-231 cells after 48 hr by sulforhodamine B assay; details: MDA-MB-231, 48 h
HCC 2998 = assay: Cytotoxicity against Homo sapiens (human) HCC2998 cells after 48 hr by sulforhodamine B assay; details: HCC 2998, 48 h
DU-145 = assay: Cytotoxicity against Homo sapiens (human) DU145 cells after 48 hr by sulforhodamine B assay; details: DU-145, 48 h
HCT-15 = assay: Cytotoxicity against Homo sapiens (human) HCT15 cells after 48 hr by sulforhodamine B assay; details: HCT-15, 48 h
SK-MEL-28 = assay: Cytotoxicity against Homo sapiens (human) SK-MEL-28 cells after 48 hr by sulforhodamine B assay; details: SK-MEL-28, 48 h
Malme-3M = assay: Cytotoxicity against Homo sapiens (human) MALME-3M cells after 48 hr by sulforhodamine B assay
MDA-MB-468 = assay: Cytotoxicity against Homo sapiens (human) MDA-MB-468 cells after 48 hr by sulforhodamine B assay; details: MDA-MB-468, 48 h
SK-OV-3 = assay: Cytotoxicity against Homo sapiens (human) SKOV3 cells after 48 hr by sulforhodamine B assay; details: SK-OV-3, 48 h
OVCAR-4 = assay: Cytotoxicity against Homo sapiens (human) OVCAR4 cells after 48 hr by sulforhodamine B assay; details: OVCAR-4, 48 h
MDA-MB-435 = assay: Cytotoxicity against Homo sapiens (human) MDA-MB-435 cells after 48 hr by sulforhodamine B assay; details: MDA-MB-435, 48 h
UACC-62 = assay: Cytotoxicity against Homo sapiens (human) UACC62 cells after 48 hr by sulforhodamine B assay; details: UACC-62, 48 h
[1] = Cytotoxicity against Homo sapiens (human) […] cells after 48 hr by sulforhodamine B assay
BT-549 = assay: Cytotoxicity against Homo sapiens (human) BT549 cells after 48 hr by sulforhodamine B assay; details: BT-549, 48 h
SW-620 = assay: Cytotoxicity against Homo sapiens (human) SW620 cells after 48 hr by sulforhodamine B assay; details: SW-620, 48 h
OVCAR-8 = assay: Cytotoxicity against Homo sapiens (human) OVCAR8 cells after 48 hr by sulforhodamine B assay; details: OVCAR-8, 48 h
NCI-H460 = assay: Cytotoxicity against Homo sapiens (human) NCI-H460 cells after 48 hr by sulforhodamine B assay; details: NCI-H460, 48 h
HT-29 = assay: Cytotoxicity against Homo sapiens (human) HT-29 cells after 48 hr by sulforhodamine B assay; details: HT-29, 48 h
KM12 = assay: Cytotoxicity against Homo sapiens (human) KM12 cells after 48 hr by sulforhodamine B assay; details: KM12, 48 h
[2] = Cytotoxicity against Homo sapiens (human) NCI-ADR-RES cells after 48 hr by sulforhodamine B assay
TK-10 = assay: Cytotoxicity against Homo sapiens (human) TK10 cells after 48 hr by sulforhodamine B assay; details: TK-10, 48 h
LOX IMVI = assay: Cytotoxicity against Homo sapiens (human) LOXIMVI cells after 48 hr by sulforhodamine B assay

## COc1ccc(-c2cs/c(=N\NC(=O)c3ccc(O)cc3)n2-c2ccc(OC)cc2OC)cc1
SR
  GI50: 2 µM
  LC50: > 100 µM
SR; read-out: pTGI
  TGI: > 100 µM
HOP-62
  GI50: 2.95 µM
  LC50: 49 µM
HOP-62; read-out: pTGI (converted)
  TGI: 7.59 µM
NCI-H226
  GI50: 4.27 µM
  LC50: > 100 µM
NCI-H226; read-out: pTGI (converted)
  TGI: > 100 µM
HCT-116
  GI50: 5.13 µM
  LC50: > 100 µM
HCT-116; read-out: pTGI (converted)
  TGI: 28.2 µM
SK-MEL-5
  GI50: 5.37 µM
  LC50: 52.5 µM
SK-MEL-5; read-out: pTGI (converted)
  TGI: 19.5 µM
EKVX
  GI50: 6.92 µM
  LC50: > 100 µM
EKVX; read-out: pTGI (converted)
  TGI: > 100 µM
M14
  GI50: 5.5 µM
  LC50: > 100 µM
M14; read-out: pTGI (converted)
  TGI: 27.5 µM
COLO 205
  GI50: 4.47 µM
  LC50: 79.4 µM
COLO 205; read-out: pTGI (converted)
  TGI: 20.9 µM
OVCAR-3
  GI50: 3.8 µM
  LC50: 95.5 µM
OVCAR-3; read-out: pTGI (converted)
  TGI: 17 µM
SN12C
  GI50: 6.61 µM
  LC50: > 100 µM
SN12C; read-out: pTGI (converted)
  TGI: 57.5 µM
MDA-MB-231
  GI50: 3.16 µM
  LC50: > 100 µM
MDA-MB-231; read-out: pTGI (converted)
  TGI: 20 µM
HCC 2998
  GI50: 1.95 µM
  LC50: 53.7 µM
HCC 2998; read-out: pTGI (converted)
  TGI: 5.25 µM
DU-145
  GI50: 8.13 µM
  LC50: > 100 µM
DU-145; read-out: pTGI (converted)
  TGI: 40.7 µM
HCT-15
  GI50: 3.55 µM
  LC50 (concentration killing 50% of cells): > 100 µM
HCT-15; read-out: pTGI (converted)
  TGI: > 100 µM
SK-MEL-28
  GI50: 7.24 µM
  LC50 (concentration killing 50% of cells): > 100 µM
SK-MEL-28; read-out: pTGI (converted)
  TGI: 53.7 µM
Malme-3M
  GI50: 5.37 µM
  LC50: > 100 µM
Malme-3M; read-out: pTGI (converted)
  TGI: 64.6 µM
MDA-MB-468
  GI50: 3.89 µM
  LC50: > 100 µM
MDA-MB-468; read-out: pTGI (converted)
  TGI: > 100 µM
SK-OV-3
  GI50: 15.1 µM
  LC50: > 100 µM
SK-OV-3; read-out: pTGI (converted)
  TGI: 100 µM
OVCAR-4
  GI50: 10.2 µM
  LC50: > 100 µM
OVCAR-4; read-out: pTGI (converted)
  TGI: > 100 µM
MDA-MB-435
  GI50: 2.88 µM
  LC50: > 100 µM
MDA-MB-435; read-out: pTGI (converted)
  TGI: 22.9 µM
UACC-62
  GI50: 4.47 µM
  LC50: 85.1 µM
UACC-62; read-out: pTGI (converted)
  TGI: 22.9 µM
[1]
  GI50: 3.8 µM
  LC50: > 100 µM
[1]; read-out: pTGI (converted)
  TGI: > 100 µM
BT-549
  GI50: 14.1 µM
  LC50: > 100 µM
BT-549; read-out: pTGI (converted)
  TGI: 69.2 µM
SW-620
  GI50: 4.37 µM
  LC50: > 100 µM
SW-620; read-out: pTGI (converted)
  TGI: 43.7 µM
OVCAR-8
  GI50: 10.2 µM
  LC50: > 100 µM
OVCAR-8; read-out: pTGI (converted)
  TGI: > 100 µM
NCI-H460
  GI50: 3.02 µM
  LC50: > 100 µM
NCI-H460; read-out: pTGI (converted)
  TGI: 13.5 µM
HT-29
  GI50: 3.63 µM
  LC50: > 100 µM
HT-29; read-out: pTGI (converted)
  TGI: 17 µM
KM12
  GI50: 2.63 µM
  LC50: 87.1 µM
KM12; read-out: pTGI (converted)
  TGI: 8.51 µM
[2]
  GI50: 2.95 µM
  LC50: > 100 µM
[2]; read-out: pTGI (converted)
  TGI: 8.32 µM
TK-10
  GI50: 13.5 µM
  LC50: > 100 µM
TK-10; read-out: pTGI (converted)
  TGI: 75.9 µM
LOX IMVI
  GI50: 3.8 µM
  LC50: 85.1 µM
LOX IMVI; read-out: pTGI (converted)
  TGI: 15.8 µM
